Earlier results, collected in US20090304721A1, “TOXIN […] RECEPTOR ANTIBODIES” (priority 2005, published 2009).

Settings: compared with vincristine and vinblastine; cited from earlier work

For `COc1cc2cc(c1Cl)N(C)C(=O)C[C@H](OC(=O)[C@H](C)N(C)C(C)=O)[C@]1(C)O[C@H]1[C@H](C)[C@@H]1C[C@@](O)(NC(=O)O1)[C@H](OC)/C=C/C=C(\C)C2` [Maytansine], the “cytotoxicity in vitro relative to vinca alkaloids” value is given as 200 to 1,000 fold.
